Legend:
Format in all cases: functional
[1] = system: Klebsiella pneumoniae; experiment: Antimicrobial activity against ESBL-positive Klebsiella pneumoniae 71697 harboring porin OmpK36V mutant gene by Etest
[2] = system: Klebsiella pneumoniae; experiment: Antimicrobial activity against ESBL-positive Klebsiella pneumoniae 69928 harboring porin OmpK36V mutant gene by Etest
[3] = system: Klebsiella pneumoniae; experiment: Antimicrobial activity against ESBL-positive Klebsiella pneumoniae 69036 harboring porin OmpK36V mutant gene by Etest
[4] = system: Klebsiella pneumoniae; experiment: Antimicrobial activity against ESBL-positive Klebsiella pneumoniae 50748 harboring porin OmpK36 gene by Etest
[5] = system: Klebsiella pneumoniae; experiment: Antimicrobial activity against ESBL-positive Klebsiella pneumoniae 18260 harboring pSHA2-encoded porin OmpK36 gene by Etest
[6] = system: Klebsiella pneumoniae; experiment: Antimicrobial activity against ESBL-positive Klebsiella pneumoniae 17829 harboring pSHA2-encoded porin OmpK36 gene by Etest
[7] = system: Klebsiella pneumoniae; experiment: Antimicrobial activity against ESBL-positive Klebsiella pneumoniae 19039 harboring porin OmpK36V mutant gene by Etest
[8] = system: Klebsiella pneumoniae; experiment: Antimicrobial activity against ESBL-positive Klebsiella pneumoniae 18918 harboring porin OmpK36V mutant gene by Etest
[9] = system: Klebsiella pneumoniae; experiment: Antimicrobial activity against ESBL-positive Klebsiella pneumoniae 18567 harboring porin OmpK36V mutant gene by Etest
[10] = system: Klebsiella pneumoniae; experiment: Antimicrobial activity against ESBL-positive Klebsiella pneumoniae 18260 by Etest
[11] = system: Klebsiella pneumoniae; experiment: Antimicrobial activity against ESBL-positive Klebsiella pneumoniae 17834 harboring porin OmpK36V mutant gene by Etest
[12] = system: Klebsiella pneumoniae; experiment: Antimicrobial activity against ESBL-positive Klebsiella pneumoniae 17830 harboring porin OmpK36V mutant gene by Etest
[13] = system: Klebsiella pneumoniae; experiment: Antimicrobial activity against ESBL-positive Klebsiella pneumoniae 17829 by Etest
[14] = system: Klebsiella pneumoniae; experiment: Antimicrobial activity against ESBL-positive Klebsiella pneumoniae 17049 harboring porin OmpK36V mutant gene by Etest
[15] = system: Klebsiella pneumoniae; experiment: Antimicrobial activity against ESBL-positive Klebsiella pneumoniae 16855 harboring porin OmpK36 and OmpK35 genes by Etest
[16] = system: Klebsiella pneumoniae; experiment: Antimicrobial activity against ESBL-positive Klebsiella pneumoniae 6267 harboring porin OmpK36V mutant gene by Etest
[17] = system: Klebsiella pneumoniae; experiment: Antimicrobial activity against ESBL-positive Klebsiella pneumoniae 11932 harboring porin OmpK36 gene by Etest
[18] = system: Klebsiella pneumoniae; experiment: Antimicrobial activity against ESBL-positive Klebsiella pneumoniae 16830 harboring porin OmpK36 gene by Etest
[19] = system: Klebsiella pneumoniae; experiment: Antimicrobial activity against ESBL-positive Klebsiella pneumoniae 25008 by Etest
[20] = system: Klebsiella pneumoniae; experiment: Antimicrobial activity against ESBL-positive Klebsiella pneumoniae 26077 harboring porin OmpK36V mutant gene by Etest
[21] = system: Klebsiella pneumoniae; experiment: Antimicrobial activity against ESBL-positive Klebsiella pneumoniae 287942 harboring porin OmpK36 gene by Etest
[22] = system: Klebsiella pneumoniae; experiment: Antimicrobial activity against ESBL-positive Klebsiella pneumoniae 29459 harboring porin OmpK36 gene by Etest
[23] = system: Klebsiella pneumoniae; experiment: Antimicrobial activity against ESBL-positive Klebsiella pneumoniae 29830 harboring porin OmpK36V mutant gene by Etest
[24] = system: Klebsiella pneumoniae; experiment: Antimicrobial activity against ESBL-negative Klebsiella pneumoniae 299332 harboring porin OmpK36 gene by Etest
[25] = system: Klebsiella pneumoniae; experiment: Antimicrobial activity against ESBL-negative Klebsiella pneumoniae 30018 harboring porin OmpK35 gene by Etest
[26] = system: Klebsiella pneumoniae; experiment: Antimicrobial activity against ESBL-positive Klebsiella pneumoniae 31750 harboring porin OmpK36 gene by Etest
[27] = system: Klebsiella pneumoniae; experiment: Antimicrobial activity against ESBL-positive Klebsiella pneumoniae 71697 harboring porin OmpK36V mutant gene by Etest in presence of Tazobactam
[28] = system: Klebsiella pneumoniae; experiment: Antimicrobial activity against ESBL-positive Klebsiella pneumoniae 69928 harboring porin OmpK36V mutant gene by Etest in presence of Tazobactam
[29] = system: Klebsiella pneumoniae; experiment: Antimicrobial activity against ESBL-positive Klebsiella pneumoniae 69036 harboring porin OmpK36V mutant gene by Etest in presence of Tazobactam
[30] = system: Klebsiella pneumoniae; experiment: Antimicrobial activity against ESBL-positive Klebsiella pneumoniae 50748 harboring porin OmpK36 gene by Etest in presence of Tazobactam
[31] = system: Klebsiella pneumoniae; experiment: Antimicrobial activity against ESBL-positive Klebsiella pneumoniae 19039 harboring porin OmpK36V mutant gene by Etest in presence of Tazobactam
[32] = system: Klebsiella pneumoniae; experiment: Antimicrobial activity against ESBL-positive Klebsiella pneumoniae 18918 harboring porin OmpK36V mutant gene by Etest in presence of Tazobactam
[33] = system: Klebsiella pneumoniae; experiment: Antimicrobial activity against ESBL-positive Klebsiella pneumoniae 18567 harboring porin OmpK36V mutant gene by Etest in presence of Tazobactam
[34] = system: Klebsiella pneumoniae; experiment: Antimicrobial activity against ESBL-positive Klebsiella pneumoniae 18260 by Etest in presence of Tazobactam
[35] = system: Klebsiella pneumoniae; experiment: Antimicrobial activity against ESBL-positive Klebsiella pneumoniae 17834 harboring porin OmpK36V mutant gene by Etest in presence of Tazobactam
[36] = system: Klebsiella pneumoniae; experiment: Antimicrobial activity against ESBL-positive Klebsiella pneumoniae 17830 harboring porin OmpK36V mutant gene by Etest in presence of Tazobactam
[37] = system: Klebsiella pneumoniae; experiment: Antimicrobial activity against ESBL-positive Klebsiella pneumoniae 17829 by Etest in presence of Tazobactam
[38] = system: Klebsiella pneumoniae; experiment: Antimicrobial activity against ESBL-positive Klebsiella pneumoniae 17049 harboring porin OmpK36V mutant gene by Etest in presence of Tazobactam
[39] = system: Klebsiella pneumoniae; experiment: Antimicrobial activity against ESBL-positive Klebsiella pneumoniae 16855 harboring porin OmpK36 and OmpK35 genes by Etest in presence of Tazobactam
[40] = system: Klebsiella pneumoniae; experiment: Antimicrobial activity against ESBL-positive Klebsiella pneumoniae 6267 harboring porin OmpK36V mutant gene by Etest in presence of Tazobactam
[41] = system: Klebsiella pneumoniae; experiment: Antimicrobial activity against ESBL-positive Klebsiella pneumoniae 11932 harboring porin OmpK36 gene by Etest in presence of Tazobactam
[42] = system: Klebsiella pneumoniae; experiment: Antimicrobial activity against ESBL-positive Klebsiella pneumoniae 16830 harboring porin OmpK36 gene by Etest in presence of Tazobactam
[43] = system: Klebsiella pneumoniae; experiment: Antimicrobial activity against ESBL-positive Klebsiella pneumoniae 25008 by Etest in presence of Tazobactam
[44] = system: Klebsiella pneumoniae; experiment: Antimicrobial activity against ESBL-positive Klebsiella pneumoniae 26077 harboring porin OmpK36V mutant gene by Etest in presence of Tazobactam
[45] = system: Klebsiella pneumoniae; experiment: Antimicrobial activity against ESBL-positive Klebsiella pneumoniae 287942 harboring porin OmpK36 gene by Etest in presence of Tazobactam
[46] = system: Klebsiella pneumoniae; experiment: Antimicrobial activity against ESBL-positive Klebsiella pneumoniae 29459 harboring porin OmpK36 gene by Etest in presence of Tazobactam
[47] = system: Klebsiella pneumoniae; experiment: Antimicrobial activity against ESBL-positive Klebsiella pneumoniae 29830 harboring porin OmpK36V mutant gene by Etest in presence of Tazobactam
[48] = system: Klebsiella pneumoniae; experiment: Antimicrobial activity against ESBL-negative Klebsiella pneumoniae 299332 harboring porin OmpK36 gene by Etest in presence of Tazobactam
[49] = system: Klebsiella pneumoniae; experiment: Antimicrobial activity against ESBL-negative Klebsiella pneumoniae 30018 harboring porin OmpK35 gene by Etest in presence of Tazobactam
[50] = system: Klebsiella pneumoniae; experiment: Antimicrobial activity against ESBL-positive Klebsiella pneumoniae 31750 harboring porin OmpK36 gene by Etest in presence of Tazobactam

Measured: MIC

C[C@@H](O)[C@H]1C(=O)N2C(C(=O)O)=C(S[C@@H]3CN[C@H](C(=O)N(C)C)C3)[C@H](C)[C@H]12 [MEROPENEM]
12 µg/mL: [10] | [13]
1 µg/mL: [3] | [5] | [6] | [7] | [8] | [9] | [16] | [20] | [23]
0.032 µg/mL: [24] | [25]
0.047 µg/mL: [18]
0.094 µg/mL: [4] | [22]
0.75 µg/mL: [11]
1.5 µg/mL: [1] | [2] | [12]
0.064 µg/mL: [15] | [17] | [21] | [26]
2 µg/mL: [14]
4 µg/mL: [19]

C[C@H]1[C@H](NC(=O)/C(=N\OC(C)(C)C(=O)O)c2csc(N)n2)C(=O)N1S(=O)(=O)O [AZTREONAM]
0.25 µg/mL: [24]
0.064 µg/mL: [25]
> 256 µg/mL: [1] | [2] | [3] | [4] | [5] | [6] | [7] | [8] | [9] | [10] | [11] | [12] | [13] | [14] | [17] | [18] | [19] | [20] | [21] | [22] | [23]

CC(C)(O/N=C(\C(=O)N[C@@H]1C(=O)N2C(C(=O)[O-])=C(C[n+]3ccccc3)CS[C@H]12)c1csc(N)n1)C(=O)O [CEFTAZIDIME]
> 32 µg/mL: [1] | [2] | [3] | [4] | [5] | [6] | [7] | [8] | [9] | [10] | [11] | [12] | [13] | [14] | [15] | [16] | [17] | [18] | [19] | [20] | [21] | [22] | [23] | [26]
< 0.5 µg/mL: [24] | [25]

CCN1CCN(C(=O)N[C@@H](C(=O)N[C@@H]2C(=O)N3[C@@H]2SC(C)(C)[C@@H]3C(=O)O)c2ccccc2)C(=O)C1=O [PIPERACILLIN]
32 µg/mL: [39]
16 µg/mL: [42]
> 256 µg/mL: [27] | [28] | [29] | [31] | [32] | [33] | [34] | [35] | [36] | [37] | [38] | [41] | [43] | [44] | [45] | [46] | [47]
12 µg/mL: [30] | [40]
6 µg/mL: [48]
8 µg/mL: [50]
3 µg/mL: [49]

CO/N=C(\C(=O)N[C@@H]1C(=O)N2C(C(=O)O)=C(COC(C)=O)CS[C@H]12)c1csc(N)n1 [CEFOTAXIME]
0.094 µg/mL: [25]
0.125 µg/mL: [24]
> 32 µg/mL: [1] | [2] | [3] | [4] | [7] | [8] | [9] | [10] | [11] | [12] | [13] | [14] | [15] | [16] | [17] | [18] | [19] | [20] | [21] | [22] | [23] | [26]

C[C@@H](O)[C@H]1C(=O)N2C(C(=O)O)=C(SCCNC=N)C[C@H]12 [IMIPENEM ANHYDROUS]
0.5 µg/mL: [2] | [16]
0.19 µg/mL: [1] | [3] | [7] | [8] | [9] | [11] | [12] | [17] | [20] | [21] | [22] | [23] | [26]
1 µg/mL: [5] | [6] | [19]
0.125 µg/mL: [18]
0.25 µg/mL: [4] | [14] | [15] | [24] | [25]
12 µg/mL: [10] | [13]

CO/N=C(\C(=O)N[C@@H]1C(=O)N2C(C(=O)[O-])=C(C[N+]3(C)CCCC3)CS[C@H]12)c1csc(N)n1 [CEFEPIME]
96 µg/mL: [22]
> 256 µg/mL: [1] | [2] | [3] | [7] | [8] | [9] | [10] | [11] | [12] | [13] | [14] | [16] | [19] | [20] | [23]
48 µg/mL: [4] | [17]
0.047 µg/mL: [25]

CO[C@@]1(NC(=O)Cc2cccs2)C(=O)N2C(C(=O)O)=C(COC(N)=O)CS[C@@H]21 [CEFOXITIN]
6 µg/mL: [4] | [17] | [22]
3 µg/mL: [18] | [25] | [26]
> 256 µg/mL: [7] | [8] | [9] | [10] | [13] | [14]
128 µg/mL: [1] | [3] | [20] | [23]
48 µg/mL: [2]
64 µg/mL: [19]
256 µg/mL: [5] | [6]
96 µg/mL: [11] | [12]
4 µg/mL: [21] | [24]
24 µg/mL: [15]
32 µg/mL: [16]

— ChEMBL document CHEMBL1671734, “An ertapenem-resistant extended-spectrum-beta-lactamase-producing Klebsiella pneumoniae clone carries a novel OmpK36 porin variant” (2010)
